# Reference: patent publication US6495376B1, “Methods and compositions for regulating protein-protein interactions” (Beth Israel Deaconess Medical Center, priority 1999, dated 2002)
# pKd: −log10 of the molar value. Where two headings read alike, the source gives them in different places. Where no end group is shown, it is not given here. [ ]: non-standard residue; d: D form. pT = C[C@@H](OP(=O)(O)O)[C@H](N)C(=O)O; pS = N[C@@H](COP(=O)(O)O)C(=O)O
# Columns and labels:
# [1] = biological target: WFYpSPFLE (Pintide); assay: Fluorescence anisotropy (polarization) binding to fluorescein-labeled phosphorylated Pintide analogue; details: for pKd: fluorescein labeled Pintide, high affinity pSer-binding site in the WW-domain, read-out: Kd for Pintide
# Description: To determine the affinity of Pin1, and its WW or PPIase domain for phosphopeptides, peptides were labeled with fluorescein and their interactions with Pin1 measured using quantitative fluorescence anisotrophy. To prevent nonspecific labeling, a Pintide analogue (WFYpSPFLE) SEQ ID NO: 9 was used, which binds Pin1 with a high affinity based on the peptide library screen as described by (Lu, K. P. et al., U.S. Ser. No. 60/058,164 (1997), the teachings of which are incorporated herein in their entirety.
# (§1) Pintide and its nonphosphorylated counterpart were synthesized and incubated with GST-Pin1 or the GST-WW-domain of Pin1 in a binding buffer, using established procedures (Shen, M. et al., Genes & Dev 12:706 (1998)). After a 1 hr incubation, mitotic HeLa cell extracts were added and subjected to GST pull down experiments, followed by immunoblotting analysis using the MPM-2 antibody. To obtain semi-quantitative data, films of immunoblots were scanned at the region of 55 kDa, the major Pin1-binding protein, and data analyzed using ImageQuan (ScanJet II CX). The peptide binding constants were measured using a fluorescence polarization assay (Jiskoot, W. et al., Anal Biochem 196:421 (1991)). Peptides were fluorescein labeled at the N-terminus using the Fluorescein Amine Labeling Kit (Pan Vera Corp.) and purified by TLC according to the manufacturer's […]. To prevent nonspecific labeling, a Pintide analogue (WFYpSPFLE) SEQ ID NO: 8 and the nonphosphorylated control were used. Various concentrations of Pin1 and its mutant proteins were incubated with 0.1 μM of the labeled peptides in a binding buffer containing 50 mM HEPES, pH 7.4, 100 mM NaCl, 2% glycerol. Fluorescence polarization values were obtained using a Pan Vera Beacon 2000 system, as described by the manufacturer.
# [2] = tested on: MPM-2 antigens (mitotic phosphoproteins) of mitotic HeLa cell extracts; assay: GST pulldown from mitotic HeLa cell extracts, MPM-2 immunoblotting (phosphoprotein-binding activity); details: for Phosphoprotein binding activity: GST-fusion proteins with mitotic extracts, MPM2 antibody; for binding to mitotic phosphoproteins / MPM-2 antigens (in words): mitotic HeLa cell extracts
# Experimental: GST-fusion proteins containing the WW-domain, PPIase-domain or the entire Pin 1 protein were prepared and incubated with interphase (G1/S arrested; Control) or dividing (M phase) HeLa cell extracts using well-known procedures (Lu, K. P., et al., Nature 380:544 (1996); (Shen, M., et al., Genes & Devl. 12:706 (1998)). Briefly, HeLa cells were arrested at the G1/S boundary or mitosis by incubation with thymidine and aphidicolin or nocodazole for 16 h, respectively. The cells were lysed and supernatants incubated with 10 μl of agarose beads containing GST-Pin1; GST-WW-domain of Pin1; GST-PPIase domain of Pin1; or control GST for 2 h at 4° C. The phosphorylated precipitated proteins were washed 5 times in buffer containing 1% Triton X-100 before subjecting to immunoblotting analysis using MPM-2 antibody, as described previously (Yaffe, M. B. et al., Science 278:1957 (1997); Schukowski, et al., Biochemistry 37:5566 (1998); Shen, M. et al., Genes & Dev 12:706 (1998)). MPM-2 recognizes a subset of mitotic phosphoproteins including Pin1-binding proteins such as cdc25.
# as §1
# To examine the effect of Pin1 phosphorylation on Pin1 binding to ligands, Pin1 and Pin1 mutant proteins were incubated with the catalytic subunit of PKA and PKC (a mixture of α, β and γ, UBI) in a kinase reaction buffer containing 500 μM cold ATP at 30° C. for 15 min (Lu, K. P. et al., Anal. Biochem. 196:421 (1991)). The reactions were stopped by adding SDS sample buffer and reaction products separated on SDS-gels, followed by autoradiography. Pin1 proteins were isolated and used to bind MPM-2 antigens from mitotic extracts from HeLa cells, as previously described (Shen, M., et al., Genes & Dev 12:706 (1998)). Experiments were also performed with PKA and PKC, casein kinase, cyclin B/Cdc2 and SRPK1 kinases.
# [3] = tested on: peptide substrate; assay: PPIase activity assay with peptide substrate; assay type: biochemical; details: relative to wild-type protein defined as 100%
# [4] = biological target: Pin1 (Homo sapiens, UniProt Q13526); assay: ELISA peptide binding to Pin1; details: for Binding (OD@405 nm), tau peptides: Pin1; for Binding (OD@405 nm), Amyloid Precursor Protein Peptide: protein not printed in these lines, text: Pin1 WW-domain
# [5] = tested on: Pin1 and its WW-domain; assay: Peptide competition of Pin1 / WW-domain binding to MPM-2 antigens of mitotic extracts; parameters: species or system human; details: for competition for phosphoprotein binding (in words): 0, 25, 50, 125, 250, 500 μM peptide
# Experimental: To examine the ability of a phosphopeptide to compete with phosphoproteins for binding to the WW-domain, the Pin1 binding phosphopeptide Pintide (WFYpSPRLKK, SEQ ID NO: 13) (Lu, K. P. et al., U.S. Ser. No. 60/058,164 (1997)) was used in competition assays. A nonphosphorylated counterpart of Pintide ([…], SEQ ID NO: 14) (C-Pintide) was used as a control.
# as §1
# [6] = biological target: WFYSPFLE; assay: Fluorescence anisotropy binding to fluorescein-labeled nonphosphorylated control peptide; details: nonphosphorylated peptide
# [7] = tested on: phosphorylated tau; assay: GST-Pin1 pulldown of tau; assay type: binding; details: AD brain extracts, PHFs or age-matched normal brain extracts
# Description: Pin1 binds and regulates the function of a defined subset of mitotic phosphoproteins by interacting with conserved phosphorylated Ser/Thr-Pro motifs that are also recognized by MPM-2, a mitosis-specific, phosphorylation-dependent monoclonal antibody (mAb) (Yaffe, M. B. et al., Science 278:1957-1960 (1997); Shen, M. et al., Genes Dev. 12:706-720 (1 998)). Tau is an MPM-2 antigen phosphorylated on multiple Ser/Thr-Pro motifs during mitosis (Illenberger, S. et al., Mol Biol Cell 9:1495-1512 (1998)). Experiments were undertaken to determine whether Pin1 binds tau. Tau isoform was either synthesized by in vitro transcription and translation in the presence of ^35S-Met or produced in bacteria as an N-terminal His-tagged protein, followed by purification using NTA-Ni columns (Yaffe, M. B. et al., Science 278:1957-1960 (1997); Shen, M. et al., Genes Dev. 12:706-720 (1998)). To generate interphase- and mitosis-specific phosphorylated form of tau, tau was incubated with Xenopus interphase and mitotic extracts, respectively (Shen, M. et al., Genes Dev. 12:706-720 (1998)). To prepare Cdc2 phosphorylated tau, purified recombinant tau was incubated with purified cyclin B/Cdc2 (UBI) for 6 to 12 hr at room temperature in a buffer containing 500 μM cold ATP, plus trace [^32P]-ATP in some experiments, (Vincent, I. et al., J Neurosci 17:3588-3598 (1997)).
# Pin1 interactions with tau in AD brains were examined using a GST-Pin1 pulldown assay (Shen, M. et al., Genes Dev. 12:706-720 (1998)). Glutathione beads containing GST or GST-Pin1 were incubated with normal or AD brain extracts, or PHFs purified (Vincent, I. J. and Davies, P. Proc Natl Acad Sci USA 89:2878-2882 (1992)), and proteins associated with the beads were subjected to immunoblotting analysis using CP27, which recognizes all forms of tau. Recombinant and mutant Pin1 proteins were produced as N-terminal GST or His-tagged fusion proteins (Shen, M. et al., Genes Dev. 12:706-720 (1998)). PHFs were purified by immunoaffinity chromatography (Vincent, I. J. and Davies, P. Proc Natl Acad Sci USA 89:2878-2882 (1992)).
# To determine whether Pin1 interacts with pT231-tau, GST-Pin1 beads were used to isolate tau from AD brain extracts or PHFs and T231 phosphorylation detected using CP9. Tau isolated by Pin1 beads was strongly immunoreactive with CP9. […] Thus, Pin1 binds pT231-tau through its WW-domain.
# [8] = high affinity binding site, read-out: WFYpSPFLE Kd(μM) High affinity
# [9] = low affinity binding site, read-out: WFYpSPFLE Kd(μM) Low affinity
# [10] = competition with MPM2 antigens of mitotic extracts
# Sequence of Pin1 and its WW-domain (Q13526 1-54 limits assumed): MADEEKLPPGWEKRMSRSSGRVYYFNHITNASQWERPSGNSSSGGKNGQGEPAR
# Sequence of Pin1 (Q13526 whole entry): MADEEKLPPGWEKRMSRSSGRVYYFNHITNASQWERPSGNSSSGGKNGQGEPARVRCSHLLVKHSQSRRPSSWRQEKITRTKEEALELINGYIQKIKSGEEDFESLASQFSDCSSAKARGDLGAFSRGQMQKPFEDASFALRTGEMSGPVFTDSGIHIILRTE
# Sequence of phosphorylated tau (P10636 45-216 isoform P10636-2 limits assumed): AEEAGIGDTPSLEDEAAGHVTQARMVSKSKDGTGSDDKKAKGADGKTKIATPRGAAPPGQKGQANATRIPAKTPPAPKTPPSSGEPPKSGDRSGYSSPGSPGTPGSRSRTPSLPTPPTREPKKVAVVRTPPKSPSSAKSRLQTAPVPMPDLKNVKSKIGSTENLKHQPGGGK
substance,measurement,setting,value
Pin1^S18E: Pin1 with Ser-18 mutated to Glu,Kd,[1]; [8],1 µM
same,Kd,[1]; [9],12 µM
same,Phosphoprotein binding activity,[2],+ (binding was detected)
same,binding to mitotic phosphoproteins / MPM-2 antigens (in words),[2],did not affect the ability of Pin1 to bind phosphoproteins
same,PPlase Activity (%),[3],98%
KVAVVRTPPKSPS [T-231],"Binding (OD@405 nm), tau peptides",[4],0.00 OD@405 nm
"Pin1^Y23F: Pin1 mutant, Tyr-23 replaced by Phe",pKd,[1],5.30
same,PPlase Activity (%),[3],94%
"TSPRHLSNVSSTG (also: phosphoserine, place not given here) [pS-409]","Binding (OD@405 nm), tau peptides",[4],0.00 OD@405 nm
KEVDAAVTPEERHLS [T-668],"Binding (OD@405 nm), Amyloid Precursor Protein Peptide",[4],0.00 OD@405 nm
"WFYSPRLKK (not fully specified) [C-Pintide, nonphosphorylated counterpart of Pintide, control, reference compound]",competition for phosphoprotein binding (in words),[5],not with the nonphosphorylated peptide
"TRIPAKTPPAPKT (also: phosphorylated Thr, place not given here) [pT-175]","Binding (OD@405 nm), tau peptides",[4],0.00 OD@405 nm
"VRTPPKSPSSAKSR (also: phosphoserine, place not given here) [pS-235]","Binding (OD@405 nm), tau peptides",[4],0.11 OD@405 nm
Pin1^R14A: Pin1 with substitution of Arg-14 with Ala,pKd,[1],5.70
same,Kd,[1]; [8],2 µM
same,Kd,[1]; [9],13.5 µM
same,Phosphoprotein binding activity,[2],+ (binding was detected)
same,binding to mitotic phosphoproteins / MPM-2 antigens (in words),[2],did not appear to cause a significant change
same,PPlase Activity (%),[3],92%
"VQSKIGSLDNITH (also: phosphoserine, place not given here) [pS-356]","Binding (OD@405 nm), tau peptides",[4],0.00 OD@405 nm
"GYSSPGSPGTPGSR (also: phosphoserine, place not given here) [pS-202]","Binding (OD@405 nm), tau peptides",[4],0.08 OD@405 nm
PRHLSNVSSTGSIDMV [pS-412] (PRHLSNV[pS]STGSIDMV),"Binding (OD@405 nm), tau peptides",[4],0.02 OD@405 nm
GST-Pin1: GST-fusion protein containing the entire Pin1 protein,Kd,[1]; [8],1.2 µM
same,Kd,[1]; [9],13 µM
same,WFYSPFLE Kd,[6],Not binding
same,binding to tau of brain extracts,[7],bound tau present in AD brain extracts or PHFs
"SRSRTPSLPTPPT (also: phosphoserine, place not given here) [pS-214]","Binding (OD@405 nm), tau peptides",[4],0.00 OD@405 nm
GSLDNITHVPGGG (GSLDNI[pT]HVPGGG) [pT-361],"Binding (OD@405 nm), tau peptides",[4],0.00 OD@405 nm
"SIDMVDSPQLATL (also: phosphorylated Ser, place not given here) [pS-422]","Binding (OD@405 nm), tau peptides",[4],0.00 OD@405 nm
PRHLSNVSSTGSIDMV [pS-413] (PRHLSNVS[pS]TGSIDMV),"Binding (OD@405 nm), tau peptides",[4],0.00 OD@405 nm
Pin1^S16A: Pin1 with Ser-16 substituted with Ala,pKd,[1],5.92
same,Kd,[1]; [8],1.2 µM
same,Kd,[1]; [9],10.5 µM
same,Phosphoprotein binding activity,[2],+ (binding was detected)
same,binding to mitotic phosphoproteins / MPM-2 antigens (in words),[2],interacted with all Pin1 ligands
same,effect of phosphorylation by PKA on interaction with MPM2 antigens,[2]; protein phosphorylated by PKA before binding,not affected by PKA phosphorylation
same,PPlase Activity (%),[3],96%
KEVDAAVTPEERHLS [pT-668] (KEVDAAV[pT]PEERHLS),"Binding (OD@405 nm), Amyloid Precursor Protein Peptide",[4],1.81 OD@405 nm
"NVSSTGSIDMVDS (also: phosphoserine, place not given here) [pS-416]","Binding (OD@405 nm), tau peptides",[4],0.00 OD@405 nm
DAGLKESPLQTPTE (DAGLKE[pS]PLQTPTE) [pS-46],"Binding (OD@405 nm), tau peptides",[4],0.00 OD@405 nm
WFYpSPRLKK (WFY[pS]PRLKK) [Pintide],competition for phosphoprotein binding (in words),[5],significantly reduced in a concentration dependent manner
same,peptide concentration with complete competition,[5]; [10],250 to 500 µM
same,peptide concentration with significant competition,[5]; [10],50 µM
